Laboratory results from patent US8088806B2 (Achillion Pharmaceuticals, Inc., priority 2005, dated 2012).

These compounds were tested on HCV replicon (assay: Replicon based assay of HCV replication inhibition (NPT ELISA)). Settings: Hepatitis C virus, Huh-7, 72 h, Table I; Huh-7 HCV replicon-containing cells, three days; read-out: Activity.
Type: cell-based, Hepatitis C virus
Outline: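 Huh-7 cells carrying a bicistronic HCV replicon (neo, EMCV-IRES-driven NS3–NS5B) treated overnight after seeding with usually 6 concentrations, 10 to 0.03 micromolar, for three days at 37° C without G418. Replication read as NPT level by captured ELISA; matched-DMSO wells and interferon alpha as controls.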

Compound	EC50 [nM]
CCCCCOc1ccc(Nc2nc(-c3cn4ccccc4n3)cs2)cc1C(F)(F)F [compound 223, N-(3-(trifluoromethyl)-4-(pentyloxy)phenyl)-4-(H-imidazo[1,2-a]pyridin-2-yl)thiazol-2-amine]	< 1000
CCCCCc1ccc(Nc2nc(-c3ccc(CC(=O)O)cc3)c(C)s2)cc1 [compound 182, 2-(4-(2-(4-pentylphenylamino)-5-methylthiazol-4-yl)phenyl)acetic acid]	< 1000
Fc1cccc(-c2csc(Nc3cccc(Oc4ccccc4)c3)n2)c1 [compound 188, 4-(3-fluorophenyl)-N-(3-phenoxyphenyl)thiazol-2-amine]	< 1000
N#CCc1ccc(Nc2nc(-c3cccnc3)cs2)cc1 [compound 98, 2-(4-(4-(pyridin-3-yl)thiazol-2-ylamino)phenyl)acetonitrile]	> 10000
N#Cc1ccc(Nc2nc(-c3ccc(Cl)c(Cl)c3)cs2)cc1 [compound 52, 4-(4-(3,4-dichlorophenyl)thiazol-2-ylamino)benzonitrile]	> 10000
CCCCCOc1ccc(Nc2nc(CN(C)CC(N)=O)cs2)cc1C(F)(F)F [compound 218, 2-(N-((2-(3-(trifluoromethyl)-4-(pentyloxy)phenylamino)thiazol-4-yl)methyl)-N-methylamino)acetamide]	< 1000
CCCCCOc1ccc(Nc2nc(-c3ccccc3Cl)cs2)cc1F [compound 177, 4-(2-chlorophenyl)-N-(3-fluoro-4-(pentyloxy)phenyl)thiazol-2-amine]	< 1000
CCCCOc1ccc(Nc2nc(-c3cccnc3)cs2)cc1 [compound 91, N-(4-butoxyphenyl)-4-(pyridin-3-yl)thiazol-2-amine]	< 1000
CCCCCc1ccc(Nc2nc(-c3ccccc3Cl)cs2)cc1 [compound 186, 4-(2-chlorophenyl)-N-(4-pentylphenyl)thiazol-2-amine]	> 10000
Clc1ccc(-c2cc(-c3csc(Nc4cccc(OCc5ccccc5)c4)n3)on2)cc1Cl [compound 194, N-(3-(benzyloxy)phenyl)-4-(3-(3,4-dichlorophenyl)isoxazol-5-yl)thiazol-2-amine]	> 10000
N#Cc1ccc(Nc2nc(-c3ccc(Cl)cc3)cs2)cc1 [compound 54, 4-(4-(4-chlorophenyl)thiazol-2-ylamino)benzonitrile]	> 10000
CCCCCOc1ccc(Nc2nc(-c3cnccn3)cs2)cc1C(F)(F)F [compound 156, N-(3-(trifluoromethyl)-4-(pentyloxy)phenyl)-4-(pyrazin-2-yl)thiazol-2-amine]	< 1000
CCCCCOc1ccc(Nc2nc(-c3cc(-c4ccc(Cl)c(Cl)c4)no3)cs2)cn1 [compound 179, N-(4-(3-(3,4-dichlorophenyi)isoxazol-5-yl)thiazol-2-yl)-6-(pentyloxy)pyridin-3-amine]	> 10000

Same assay, conditions: Hepatitis C virus, Huh-7, 72 h, Table III; Huh-7 HCV replicon-containing cells, three days; read-out: Activity

Compound	EC50 [nM]
CCCCCCC(C)Oc1ccc(Nc2nc(-c3ccc(NC(C)=O)nc3)cs2)cc1C(F)(F)F (stereo not drawn) [compound 676, N-(5-(2-(3-(trifluoromethyl)-4-(octan-2-yloxy)phenylamino)thiazol-4-yl)pyridin-2-yl)acetamide]	< 1000
CCCCCN(C)c1ccc(Nc2nc(Cc3ccc(OC)cc3)cs2)cc1C(F)(F)F [compound 643, N^4-(4-(4-methoxybenzyl)thiazol-2-yl)-2-(trifluoromethyl)-N^1-methyl-N^1-pentylbenzene-1,4-diamine]	> 10000
CCCCCOc1ccc(Nc2nc(Cc3ccc(F)c(F)c3)cs2)cc1C(F)(F)F [compound 607, 4-(3,4-difluorobenzyl)-N-(3-(trifluoromethyl)-4-(pentyloxy)phenyl)thiazol-2-amine]	1000 to 10000
CCCCCCCCN(C)c1ccc(Nc2nc(-c3ccc(Cl)s3)cs2)cc1C(F)(F)F [compound 570, N^4-(4-(5-chlorothiophen-2-yl)thiazol-2-yl)-2-(trifluoromethyl)-N^1-methyl-N^1-octylbenzene-1,4-diamine]	< 1000
CCCCCOc1ccc(Nc2nc(Cc3ccc(Cl)cc3)cs2)cc1C(F)(F)F [compound 633, 4-(4-chlorobenzyl)-N-(3-(trifluoromethyl)-4-(pentyloxy)phenyl)thiazol-2-amine]	1000 to 10000

Same assay, conditions: Hepatitis C virus, replicon based assay of HCV replication inhibition; Table II; read-out: Activity

Compound	EC50 [nM]
CCCCCOc1ccc(Nc2nc(-c3cccnc3C)cs2)cc1C(F)(F)F [compound 441, N-(3-(trifluoromethyl)-4-(pentyloxy)phenyl)-4-(2-methylpyridin-3-yl)thiazol-2-amine]	< 1000
CC(C)COc1ccc(Nc2nc(-c3ccc(CC(=O)O)s3)cs2)cc1C(F)(F)F [compound 244, 2-(5-(2-(4-isobutoxy-3-(trifluoromethyl)phenyl-amino)thiazol-4-yl)thiophen-2-yl)acetic acid]	< 1000
CCCCCOc1ccc(Nc2nc(-c3ccc(Br)cc3)cs2)cc1C(F)(F)F [compound 406, 4-(4-bromophenyl)-N-(3-(trifluoromethyl)-4-(pentyloxy)phenyl)thiazol-2-amine]	< 1000
CN1CCC[C@H](c2csc(Nc3ccc(Oc4ccccc4)cc3)n2)C1 [compound 236, (S)-4-(1-methylpiperidin-3-yl)-N-(4-phenoxyphenyl)thiazol-2-amine]	1000 to 10000
CCCCCCCCOc1ccc(Nc2nc(-c3csc(-c4ccccc4)n3)cs2)cc1 [compound 332, N-(4-(octyloxy)phenyl)-4-(2-phenylthiazol-4-yl)thiazol-2-amine]	1000 to 10000
CCCCCCCCOc1ccc(Nc2nc(-c3cc4ccccc4o3)cs2)cc1 [compound 389]	< 1000
Cc1ccc(-c2csc(Nc3ccc(OCC4CCCCC4)c(F)c3)n2)cn1 [compound 508, N-(4-(cyclohexylmethoxy)-3-fluorophenyl)-4-(6-methylpyridin-3-yl)thiazol-2-amine]	< 1000
CCCCCCCCOc1ccc(Nc2nc(-c3c[nH]c4ccccc34)cs2)cc1 [compound 386, 4-(1H-indol-3-yl)-N-(4-(octyloxy)pheenyl)thiazol-2-amine]	< 1000
CCCCCCCOc1ccc(Nc2nc(-c3ccccn3)cs2)cc1 [compound 397, N-(4-(heptyloxy)phenyl)-4-(pyridin-2-yl)thiazol-2-amine]	< 1000
CCCCCOc1ccc(Nc2nc(CN3C[C@H](O)CC3C(=O)OC)cs2)cc1F (stereo partly drawn) [compound 290, (4R)-methyl 1-((2-(3-fluoro-4-(pentyloxy)phenylamino)thia-zol-4-yl)methyl)-4-hydroxypyrrolidine-2-carboxylate]	< 1000
CCCCCOc1ccc(Nc2nc(CNCc3cccnc3)cs2)cc1C(F)(F)F [compound 260, N-(4-(pentyloxy)-3-(trifluoromethyl)phenyl)-4-((pyridin-3-ylmethylamino)methyl)thia-zol-2-amine]	< 1000
CCCCCCCOc1ccc(Nc2nc(-c3ccc(NC(C)=O)cc3)cs2)cc1 [compound 438, N-(4-(2-(4-(heptyloxy)phenylamino)thia-zol-4-yl)phenyl)acetamide]	< 1000
CCCCCOc1ccc(Nc2nc(-c3ccc(N4CCCC4)nc3)cs2)cc1C(F)(F)F [compound 450, N-(3-(trifluoromethyl)-4-(pentyloxy)phenyl)-4-(6-(pyrrolidin-1-yl)pyridin-3-yl)thiazol-2-amine]	< 1000
CCCCCOc1ccc(Nc2nc(C3=CSC4=NCCN34)cs2)cc1C(F)(F)F [compound 228, 4-(5,6-dihydroimidazo[2,1-b]thiazol-3-yl)-N-(4-(pentyloxy)-3-(trifluoromethyl)phenyl)thia-zol-2-amine]	< 1000

Same assay, conditions: Hepatitis C virus, replicon based assay of HCV replication inhibition; Table IV; read-out: Activity

Compound	EC50 [nM]
CCCCCCCCOc1ccc(Nc2nc(C#N)c(N)s2)cc1C(F)(F)F [compound 859, 2-(3-(trifluoromethyl)-4-(octyloxy)phenylamino)-5-aminothiazole-4-carbonitrile]	< 1000
CCCCCCC#Cc1ccc(Nc2nc(-c3cccnc3)cs2)cc1C(F)(F)F [compound 789, N-(3-(trifluoromethyl)-4-(oct-1-ynyl)phenyl)-4-(pyridin-3-yl)thiazol-2-amine]	< 1000
CCCCCCCS(=O)(=O)CCc1ccc(Nc2nc(-c3cccnc3)cs2)cc1 [compound 953, N-(4-(2-(heptylsulfonyl)ethyl)phenyl)-4-(pyridin-3-yl)thiazol-2-amine]	1000 to 10000
CCC(C)(C)c1ccc(Oc2ccccc2)c(Nc2nc(-c3cccnc3)cs2)c1 [compound 902, N-(5-tert-pentyl-2-phenoxyphenyl)-4-(pyridin-3-yl)thiazol-2-amine]	< 1000
COc1ncc(-c2csc(Nc3ccc4ccn(Cc5ccc(F)cc5)c4c3)n2)cn1 [compound 866, 1-(4-fluorobenzyl)-N-(4-(2-methoxypyrimidin-5-yl)thiazol-2-yl)-1H-indol-6-amine]	< 1000
FC(F)(F)Oc1ccc(Nc2nc(-c3cccnc3)cs2)cc1 [compound 885, 4-(pyridin-3-yl)-N-(4-(trifluoromethoxy)phenyl)thiazol-2-amine]	1000 to 10000
CCCCCCCCN(C)c1ccc(Nc2nc(-c3cccnc3)c(C)s2)cc1C(F)(F)F [compound 862, 2-(trifluoromethyl)-N^1-methyl-N^4-(5-methyl-4-(pyridin-3-yl)thiazol-2-yl)-N^1-octylbenzene-1,4-diamine]	< 1000
Clc1ccc(Oc2ccc(Nc3nc(-c4cccnc4)cs3)cc2)cc1 [compound 896, N-(4-(4-chlorophenoxy)phenyl)-4-(pyridin-3-yl)thiazol-2-amine]	< 1000
Cc1ccc(CCCCOc2ccc(Nc3nc(-c4cccnc4)c(C)s3)cc2C(F)(F)F)cc1 [compound 845, N-(4-(4-p-tolylbutoxy)-3-(trifluoromethyl)phenyl)-5-methyl-4-(pyridin-3-yl)thiazol-2-amine]	< 1000
c1ccc(CCCOc2ccc(Nc3nc(-c4cccnc4)cs3)cc2)cc1 [compound 920, N-(4-(3-phenylpropoxy)phenyl)-4-(pyridin-3-yl)thiazol-2-amine]	< 1000
